Test results: BindingDB's records for patent US12178809 (Boehringer Ingelheim International, 2024)

Assays:
[1] = target: T1, Amine oxidase [copper-containing] 3 (Homo sapiens, UniProt Q16853); assay: AOC3 Biochemical Assay
T1 sequence (Q16853 whole entry): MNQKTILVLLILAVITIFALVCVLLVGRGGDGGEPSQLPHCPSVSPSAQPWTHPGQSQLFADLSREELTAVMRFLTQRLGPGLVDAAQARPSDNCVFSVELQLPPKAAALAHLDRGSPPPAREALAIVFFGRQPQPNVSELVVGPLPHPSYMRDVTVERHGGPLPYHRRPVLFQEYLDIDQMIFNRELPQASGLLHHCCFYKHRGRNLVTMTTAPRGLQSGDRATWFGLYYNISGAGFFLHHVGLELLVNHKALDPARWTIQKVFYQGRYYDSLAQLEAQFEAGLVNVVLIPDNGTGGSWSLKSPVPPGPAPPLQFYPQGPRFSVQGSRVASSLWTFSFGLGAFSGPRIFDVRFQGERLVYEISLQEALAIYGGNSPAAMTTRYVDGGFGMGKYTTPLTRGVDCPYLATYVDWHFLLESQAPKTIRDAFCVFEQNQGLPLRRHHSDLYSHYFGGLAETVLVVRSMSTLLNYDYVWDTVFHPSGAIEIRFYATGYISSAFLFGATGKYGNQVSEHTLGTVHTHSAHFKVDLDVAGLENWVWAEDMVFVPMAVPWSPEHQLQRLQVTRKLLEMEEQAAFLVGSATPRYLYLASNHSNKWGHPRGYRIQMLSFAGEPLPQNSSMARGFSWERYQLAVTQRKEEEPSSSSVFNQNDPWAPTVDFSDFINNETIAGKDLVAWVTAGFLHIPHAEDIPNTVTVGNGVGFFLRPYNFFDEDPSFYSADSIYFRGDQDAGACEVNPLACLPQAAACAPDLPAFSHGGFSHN
Description: Recombinant CHO cells, overexpressing the human (1500 cells/well), mouse (1000 cells/well) or rat (500 cells/well) AOC3 enzyme are diluted in reaction buffer and added in a volume of 15 μL to the wells. After incubation for 20 minutes at 37° C., 2 μL of MAO substrate (dissolved in DMSO at 16 mM, adjusted to assay concentration in reaction buffer to a final assay concentration of 20 μM) is added and further incubated for 60 minutes at 37° C. The turnover of the substrate is determined by the addition of 20 μL of the detection-mix which was generated by the addition of reconstitution buffer with esterase (PROMEGA, #V1402) to the luciferine detection reagent (PROMEGA, #V1402).

[2] = target: T2, Amine oxidase [copper-containing] 2 (Homo sapiens, UniProt O75106); assay: AOC2 Biochemical Assay
T2 sequence (O75106 whole entry): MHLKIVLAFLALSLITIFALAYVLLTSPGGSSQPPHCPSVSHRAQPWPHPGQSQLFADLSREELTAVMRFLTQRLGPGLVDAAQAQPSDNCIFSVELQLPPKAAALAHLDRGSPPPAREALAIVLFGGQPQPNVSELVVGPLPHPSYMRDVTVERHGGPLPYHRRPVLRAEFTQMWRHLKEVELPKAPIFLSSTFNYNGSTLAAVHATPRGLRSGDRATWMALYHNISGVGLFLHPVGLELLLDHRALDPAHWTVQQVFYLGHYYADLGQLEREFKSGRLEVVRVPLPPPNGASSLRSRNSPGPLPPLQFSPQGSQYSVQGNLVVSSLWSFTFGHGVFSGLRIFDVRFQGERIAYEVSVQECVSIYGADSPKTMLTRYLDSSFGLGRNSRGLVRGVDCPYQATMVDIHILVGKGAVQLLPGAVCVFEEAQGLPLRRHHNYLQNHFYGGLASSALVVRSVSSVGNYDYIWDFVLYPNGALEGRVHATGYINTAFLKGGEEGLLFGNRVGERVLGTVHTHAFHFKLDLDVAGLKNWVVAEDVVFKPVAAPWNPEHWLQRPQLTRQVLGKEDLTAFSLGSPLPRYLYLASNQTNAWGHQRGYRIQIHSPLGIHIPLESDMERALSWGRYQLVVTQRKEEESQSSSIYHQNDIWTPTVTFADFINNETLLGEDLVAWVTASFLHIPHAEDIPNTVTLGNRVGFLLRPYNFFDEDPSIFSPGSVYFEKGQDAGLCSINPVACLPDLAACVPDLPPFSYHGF
Description: Cells are cultured for 3 days in EMEM culture medium containing 10% FCS (#04-00-1A, Biological Industries). After washing twice with ice cold PBS, cells are lysed by mechanic homogenation and cleared supernatants are shock frozen in liquid nitrogen and stored at −80° C.For the determination of AOC2 enzymatic activity cell lysates are thawed on ice and 1:1 diluted with reaction buffer. An Aliquot of 45 μL is added to the compound dilution and incubated for 30 min at 37° C.

[3] = target: T3, Diamine oxidase [copper-containing] (Homo sapiens, UniProt P19801); assay: AOC1 Biochemical Assay
T3 sequence (P19801 whole entry): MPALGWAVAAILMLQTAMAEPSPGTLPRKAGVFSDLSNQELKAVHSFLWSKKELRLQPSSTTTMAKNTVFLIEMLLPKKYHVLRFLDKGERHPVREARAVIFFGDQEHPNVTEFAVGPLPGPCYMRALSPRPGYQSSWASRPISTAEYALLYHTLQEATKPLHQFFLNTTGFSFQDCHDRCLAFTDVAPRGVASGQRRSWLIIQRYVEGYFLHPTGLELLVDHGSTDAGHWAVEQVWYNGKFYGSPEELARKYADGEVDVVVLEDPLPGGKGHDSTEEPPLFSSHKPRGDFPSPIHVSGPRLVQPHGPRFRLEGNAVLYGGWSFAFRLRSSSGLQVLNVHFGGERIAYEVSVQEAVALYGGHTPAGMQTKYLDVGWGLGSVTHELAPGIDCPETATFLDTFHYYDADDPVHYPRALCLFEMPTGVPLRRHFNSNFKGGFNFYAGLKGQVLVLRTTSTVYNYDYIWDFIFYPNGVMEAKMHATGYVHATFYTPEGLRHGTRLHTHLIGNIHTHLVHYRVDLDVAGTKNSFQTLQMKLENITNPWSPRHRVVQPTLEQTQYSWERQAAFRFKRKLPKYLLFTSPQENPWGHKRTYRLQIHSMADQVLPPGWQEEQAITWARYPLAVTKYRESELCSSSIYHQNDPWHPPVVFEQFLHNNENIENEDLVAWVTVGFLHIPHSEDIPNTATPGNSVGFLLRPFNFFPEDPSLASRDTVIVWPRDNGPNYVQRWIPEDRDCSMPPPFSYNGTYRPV
Description: An aliquot of 3 μL of the compound dilution is added to a 384 well plate (Optiplate, PS, flat bottom F, black, PERKIN ELMER, #6007270) in a DMSO concentration of 6.6%.An AOC1 enzyme aliquot (#8297-AO-010, R&D Systems) is thawed on ice, diluted in reaction buffer and added in a volume of 7 μL to the wells to give a final assay concentration of 1 ng/well. After incubation of inhibitor and enzyme for 30 minutes at 37° C., the enzymatic reaction is started with the addition of 10 μL of Amplex Red reaction mix (final assay concentration: 100 mM sodiumphosphate, 120 μM Amplex Red reagent (#A22177 Molecular Probes), 1.5 U/mL Horseradish Peroxidase (#P8375 Sigma-Aldrich), 200 μM putrescine (#P7505 Sigma-Alrdich), 0.05% Pluronic F-127 (#P3000MP Sigma-Aldrich), pH 7.4, 37° C.).After an incubation for 30 minutes at 37° C. the turnover of the substrate is determined directly (or after the addition of an excess of an amine-oxidase inhibitor) with a fluorescence reader (Ex 540 nm/Em 590 nm) like Envision 2104 Multilabel Reader (PERKIN ELMER).

IC50 [1]: 73 nM
IC50 [2]: 629 nM
IC50 [3]: > 50000 nM
Compound: CC(C)(O)NC(=O)[C@H]1CCN(S(=O)(=O)c2ccc(OC/C(=C/F)CN)nc2)C1 [US12178809, Example 05]
